Measurements: EPA's ToxValDB 9.5 (doi:10.2903/j.efsa.2016.4492)
Converted amounts (≈) assume the structure as drawn.

How the values were obtained:
[1] = test system: Apis mellifera; settings: acute, mortality
[2] = test system: Canidae; settings: chronic; duration: 1 years; oral; Dog Other; body weight
[3] = test system: Myriophyllum aquaticum; settings: chronic/long-term; duration: 7 days; growth
[4] = test system: Daphnia magna; settings: chronic/long-term; duration: 21 days
[5] = test system: Colinus virginianus; settings: mortality
[6] = test system: Rattus norvegicus
[7] = test system: Pimephales promelas; settings: chronic/long-term; duration: 32 days
[8] = test system: Folsomia candida; settings: chronic/long-term; duration: 28 days
[9] = test system: Oncorhynchus mykiss; settings: acute; duration: 96 hours; mortality
[10] = test system: Typhlodromus pyri; assay: LR50; higher = less toxic; settings: not reported; mortality

| SMILES | LD50 ([1]; dermal) | LD50 ([1]; oral, unspecified) | NOAEL [2] | NOEC [3] | NOEC [4] | LD50 ([5]; acute, oral) | NOEC ([5]; chronic) | LD50 ([6]; acute, oral, M/F, mortality) | NOAEL ([6]; chronic, duration: 2 years, body weight) | NOAEL ([6]; reproduction developmental, body weight) | NOAEL ([6]; short-term, duration: 28 days, inhalation) | NOEC [7] | NOEC [8] | LC50 [9] | LR50 [10] |
| --- | --- | --- | --- | --- | --- | --- | --- | --- | --- | --- | --- | --- | --- | --- | --- |
| O=C1CC=C([O-])N=N1.[K+] [Maleic hydrazide, potassium salt] | > 100 µg/piece | > 100 µg/piece |  |  |  |  |  |  |  |  |  |  |  |  |  |
| O=c1ccc(=O)[nH][nH]1 [Maleic hydrazide] |  |  | 25 mg/kg-day | 3.2 mg/L | 0.57 mg/L | > 1490 mg/kg | 542 mg/kg-day | > 2000 mg/kg | 25 mg/kg-day | 398 mg/kg-day | 22 mg/kg-day | 9.6 mg/L | 113 mg/kg | 79.4 µg/mL (≈ 708 µM) | < 3000 g/ha |
